Assay results as given in paper PMC7795354, “Development of Radiogallium-Labeled Peptides for Platelet-Derived Growth Factor Receptor β (PDGFRβ) Imaging: Influence of Different Linkers” (Molecules, 2020).
Values joined by “and” are separate entries in the source; they are usually repeats but may differ in a detail not shown here. Equal entries are not always repeated. Where two headings read alike, the source gives them in different places. Where a SMILES comes first, the peptide text is derived from it. The star is where a group is joined. DOTA = O=C(O)CN1CCN(CC(=O)O)CCN(CC(=O)*)CCN(CC(=O)O)CC1; AEEA = NCCOCCOCC(=O)O

What was measured:
[1] = In vitro stability in murine plasma; conditions: 37 °C
Method: (§3) Briefly, the solution of radiotracers (37 kBq/well, 50 µL) in a sealed tube containing 0.1 M PBS pH 7.4 (450 µL) was incubated at 37 °C for 24 h. At 3 and 24 h after incubation, the purity of radiotracers was analyzed by RP-HPLC. Meanwhile, for stability assay in murine plasma, radiotracers were mixed in murine plasma at a ratio of 1:10. After incubation at 37 °C for 10 min and 1 h, an equivalent amount of ice-cold acetonitrile was added. After centrifugation at 1000× g at 4 °C for 10 min, the supernatant was filtered through a 0.45-µm filter followed by analyzing using RP-HPLC as described above. Then, the radiochemical purities were determined.

[2] = Octanol-water partition coefficient (log P), shake-flask; conditions: n-octanol/PBS, pH 7.4
Method: The octanol-water partition coefficients for radiotracers were determined via the assessment of their distribution in n-octanol and PBS (pH 7.4) using shake-flask method as described previously [48]. Radioactivity of each layer was measured using auto well gamma counter (n = 4).

[3] = Biodistribution in BxPC3-luc tumor-bearing mice; type: in vivo; conditions: female, BALB/c nu/nu, mouse, stomach, iv, 74 kBq, total radioactivity; 1 h post-injection
[4] = In vitro stability in PBS pH 7.4; conditions: 37 °C, 0.1 M PBS pH 7.4
Method: as §3

[5] = Biodistribution in BxPC3-luc tumor-bearing mice; type: in vivo, BALB/c nu/nu mice; conditions: female, BALB/c nu/nu, iv, total radioactivity
Method: (§1) All animal handling procedures were approved by the Kanazawa University Animal Care Committee. Experiments with animals were conducted in accordance with the Guidelines for the Care and Use of Laboratory Animals of Kanazawa University. The animals were housed with free access to food and water at 23 °C with a 12 h light/dark schedule. Four-week-old female BALB/c nu/nu mice (12–17 g) were purchased from Japan SLC Inc. (Hamamatsu, Japan). The tumor-bearing model was prepared by subcutaneous inoculation of 1 × 10^7 BxPC3-luc cells into left shoulder of female BALB/c nu/nu mice. The biodistribution experiment was performed approximately 4–5 weeks post-inoculation.
(§2) A saline solution of [^67Ga]27 or [^67Ga]28 (74 kBq, 100 µL) was injected intravenously into the tail vein of the mice. The mice were sacrificed at 10 min post-injection for [^67Ga]27 and 1 h post-injection for [^67Ga]27 or [^67Ga]28. For in vivo blocking studies, 100 μL of a mixed saline solution of [^67Ga]27 (74 kBq) and IPLPPPRRPFFK peptide (1 mg/mouse) was injected via tile vein into the tumor-bearing mice. The mice were sacrificed at 1 h post-injection. Tissues of interest were removed and weighed. The radioactivity of the tissues was determined using an auto well gamma counter, and counts were corrected for background radiation and physical decay during counting. The data were expressed as percent injected dose per gram tissue (%ID/g).

[6] = tested on: BxPC3-luc tumor-bearing mice; test: Biodistribution in BxPC3-luc tumor-bearing mice; type: in vivo, BALB/c nu/nu mice
Method: as §1, §2

In vitro stability in murine plasma, percentage of remained intact radiotracer ([1]; 1 h, 60 min): 75.9 ± 1.2%
remaining at 10 min ([1]; mouse, plasma, In vitro stability in murine plasma, percentage of remained intact radiotracer, 10 min): 84.4 ± 2%
remaining at 1 h ([1]; mouse, plasma, In vitro stability in murine plasma, percentage of remained intact radiotracer, 1 h): > 75%
logP [2]: < -4
tissue uptake dose at 1 h [3]: 0.06 %ID
In vitro stability in PBS pH 7.4, percentage of remained intact radiotracer ([4]; 3 h): 96.9 ± 0.5%
In vitro stability in PBS pH 7.4, percentage of remained intact radiotracer ([4]; 24 h): 95.6 ± 0.4%
tissue uptake at 1 h ([5]; blood, 1 h, blocking: co-injection of IPLPPPRRPFFK 1 mg/mouse, read-out: Biodistribution, Blood): 0.93 %ID/g
tissue uptake at 1 h ([5]; bone, 1 h, blocking: co-injection of IPLPPPRRPFFK 1 mg/mouse, read-out: Biodistribution, Bone): 0.21 %ID/g
tissue uptake at 1 h ([5]; brain, 1 h, blocking: co-injection of IPLPPPRRPFFK 1 mg/mouse, read-out: Biodistribution, Brain): 0.02 %ID/g
tissue uptake at 1 h ([5]; heart, 1 h, blocking: co-injection of IPLPPPRRPFFK 1 mg/mouse, read-out: Biodistribution, Heart): 0.28 %ID/g
tissue uptake at 1 h ([5]; 1 h, blocking: co-injection of IPLPPPRRPFFK 1 mg/mouse, BxPC3-luc tumor, read-out: Biodistribution, Tumor): 0.96 %ID/g
tissue uptake at 1 h ([5]; kidney, 1 h, blocking: co-injection of IPLPPPRRPFFK 1 mg/mouse, read-out: Biodistribution, Kidney): 12.2 %ID/g
tissue uptake at 1 h ([5]; large intestine, 1 h, blocking: co-injection of IPLPPPRRPFFK 1 mg/mouse, read-out: Biodistribution, Large intestine): 0.25 %ID/g
tissue uptake at 1 h ([5]; liver, 1 h, blocking: co-injection of IPLPPPRRPFFK 1 mg/mouse, read-out: Biodistribution, Liver): 0.27 %ID/g
tissue uptake at 1 h ([5]; lung, 1 h, blocking: co-injection of IPLPPPRRPFFK 1 mg/mouse, read-out: Biodistribution, Lung): 0.66 %ID/g
tissue uptake at 10 min ([5]; mouse, blood, 74 kBq, 10 min post-injection, i.v., read-out: Biodistribution, Blood): 3.87 %ID/g
tissue uptake at 1 h ([5]; mouse, blood, 74 kBq, 1 h post-injection, i.v., read-out: Biodistribution, Blood): 0.15 %ID/g
tissue uptake at 10 min ([5]; mouse, bone, 74 kBq, 10 min post-injection, i.v., read-out: Biodistribution, Bone): 1.62 %ID/g
tissue uptake at 1 h ([5]; mouse, bone, 74 kBq, 1 h post-injection, i.v., read-out: Biodistribution, Bone): 0.24 %ID/g
tissue uptake at 10 min ([5]; mouse, brain, 74 kBq, 10 min post-injection, i.v., read-out: Biodistribution, Brain): 0.13 %ID/g
tissue uptake at 1 h ([5]; mouse, brain, 74 kBq, 1 h post-injection, i.v., read-out: Biodistribution, Brain): 0.01 %ID/g
tissue uptake at 10 min ([5]; mouse, heart, 74 kBq, 10 min post-injection, i.v., read-out: Biodistribution, Heart): 1.47 %ID/g
tissue uptake at 1 h ([5]; mouse, heart, 74 kBq, 1 h post-injection, i.v., read-out: Biodistribution, Heart): 0.07 %ID/g
tissue uptake at 10 min ([5]; mouse, 74 kBq, 10 min post-injection, i.v., BxPC3-luc tumor, read-out: Biodistribution, Tumor): 3.11 %ID/g
tissue uptake at 1 h ([5]; mouse, 74 kBq, 1 h post-injection, i.v., BxPC3-luc tumor, read-out: Biodistribution, Tumor): 0.39 %ID/g
tissue uptake at 10 min ([5]; mouse, kidney, 74 kBq, 10 min post-injection, i.v., read-out: Biodistribution, Kidney): 13.9 %ID/g
tissue uptake at 1 h ([5]; mouse, kidney, 74 kBq, 1 h post-injection, i.v., read-out: Biodistribution, Kidney): 3.07 %ID/g
tissue uptake at 10 min ([5]; mouse, large intestine, 74 kBq, 10 min post-injection, i.v., read-out: Biodistribution, Large intestine): 0.87 %ID/g
tissue uptake at 1 h ([5]; mouse, large intestine, 74 kBq, 1 h post-injection, i.v., read-out: Biodistribution, Large intestine): 0.13 %ID/g
tissue uptake at 10 min ([5]; mouse, liver, 74 kBq, 10 min post-injection, i.v., read-out: Biodistribution, Liver): 0.9 %ID/g
tissue uptake at 1 h ([5]; mouse, liver, 74 kBq, 1 h post-injection, i.v., read-out: Biodistribution, Liver): 0.22 %ID/g
tissue uptake at 10 min ([5]; mouse, lung, 74 kBq, 10 min post-injection, i.v., read-out: Biodistribution, Lung): 3.7 %ID/g
tissue uptake at 1 h ([5]; mouse, lung, 74 kBq, 1 h post-injection, i.v., read-out: Biodistribution, Lung): 0.46 %ID/g
tissue uptake at 10 min ([5]; mouse, muscle, 74 kBq, 10 min post-injection, i.v., read-out: Biodistribution, Muscle): 0.86 %ID/g
tissue uptake at 1 h ([5]; mouse, muscle, 74 kBq, 1 h post-injection, i.v., read-out: Biodistribution, Muscle): 0.07 %ID/g
tissue uptake at 10 min ([5]; mouse, pancreas, 74 kBq, 10 min post-injection, i.v., read-out: Biodistribution, Pancreas): 0.89 %ID/g
tissue uptake at 1 h ([5]; mouse, pancreas, 74 kBq, 1 h post-injection, i.v., read-out: Biodistribution, Pancreas): 0.13 %ID/g
tissue uptake at 10 min ([5]; mouse, small intestine, 74 kBq, 10 min post-injection, i.v., read-out: Biodistribution, Small intestine): 1.16 %ID/g
tissue uptake at 1 h ([5]; mouse, small intestine, 74 kBq, 1 h post-injection, i.v., read-out: Biodistribution, Small intestine): 0.63 %ID/g
tissue uptake at 10 min ([5]; mouse, spleen, 74 kBq, 10 min post-injection, i.v., read-out: Biodistribution, Spleen): 0.99 %ID/g
tissue uptake at 1 h ([5]; mouse, spleen, 74 kBq, 1 h post-injection, i.v., read-out: Biodistribution, Spleen): 0.13 %ID/g
tissue uptake dose at 10 min ([5]; mouse, stomach, 74 kBq, 10 min post-injection): 0.19 %ID
tissue to tissue ratio at 10 min ([5]; mouse, tumor/blood, 74 kBq, 10 min post-injection): 0.81
tissue to tissue ratio at 1 h ([5]; mouse, tumor/blood, 74 kBq, 1 h post-injection): 2.61
tissue uptake at 1 h ([5]; muscle, 1 h, blocking: co-injection of IPLPPPRRPFFK 1 mg/mouse, read-out: Biodistribution, Muscle): 0.22 %ID/g
tissue uptake at 1 h ([5]; pancreas, 1 h, blocking: co-injection of IPLPPPRRPFFK 1 mg/mouse, read-out: Biodistribution, Pancreas): 0.21 %ID/g
tissue uptake at 1 h ([5]; small intestine, 1 h, blocking: co-injection of IPLPPPRRPFFK 1 mg/mouse, read-out: Biodistribution, Small intestine): 0.66 %ID/g
tissue uptake at 1 h ([5]; spleen, 1 h, blocking: co-injection of IPLPPPRRPFFK 1 mg/mouse, read-out: Biodistribution, Spleen): 0.29 %ID/g
tissue uptake dose at 1 h ([5]; stomach, 1 h, blocking: co-injection of IPLPPPRRPFFK 1 mg/mouse): 0.05 %ID
tissue to tissue ratio at 1 h ([5]; tumor/blood, 1 h, blocking: co-injection of IPLPPPRRPFFK 1 mg/mouse): 1.19
Tumor/Blood ratio ([6]; 1 h, blocking: co-injection of IPLPPPRRPFFK 1 mg/mouse): significantly decreased
Tumor/Blood ratio ([6]; 1 h post-injection, i.v.): 2.61 and 2.61 ± 0.75
Structure (SMILES): CC[C@H](C)[C@H](NC(=O)COCCOCCNC(=O)CN1CCN(CC(=O)O)CCN(CC(=O)O)CCN(CC(=O)O)CC1)C(=O)N1CCC[C@H]1C(=O)N[C@@H](CC(C)C)C(=O)N1CCC[C@H]1C(=O)N1CCC[C@H]1C(=O)N1CCC[C@H]1C(=O)N[C@@H](CCCNC(=N)N)C(=O)N[C@@H](CCCNC(=N)N)C(=O)N1CCC[C@H]1C(=O)N[C@@H](Cc1ccccc1)C(=O)N[C@@H](Cc1ccccc1)C(=O)N[C@@H](CCCCN)C(=O)O [[^67Ga]27, [^67Ga]Ga-DOTA-EG2-IPLPPPRRPFFK, metal not drawn] ({DOTA-AEEA}-IPLPPPRRPFFK-OH)
